Data set [1] relates to Trypanosoma cruzi (Tulahuen trypomastigotes expressing β-galactosidase, in L6 cells). Briefly: In vitro T. cruzi assay for determination of IC50. Particulars: 96 h incubation. The format is cell-based. The protocol:
The T. cruzi assay uses Tulahuen trypomastigotes expressing the β-galactosidase gene. The parasites were maintained in vitro by serial passage in L6 cells. […] Extracellular trypomastigotes were then removed and NCL compounds were added in seven-point serial dilutions performed in triplicate. Benznidazole (Epichem Pty Ltd.) was included as a control. […] After 4-6 h, a colour change following catabolisation of the reagent by viable T. cruzi was observed and absorbance was read at 530 nm using a Dynex microplate reader. […] For each compound, % inhibition values were used to generate a standard curve from which the IC50 was calculated. Each assay was performed at least twice, and the average was used.

The subject of data set [2] is Leishmania donovani promastigotes. The data set is described as follows: L. donovani screening (Alamarblue). Particulars: for inhibition at 10 µM: 96 hrs, read-out: reduction of metabolic activity / inhibition of L. donovani; for L. donovani SI: GI50 of macrophages divided by IC50 of parasites. The format is cell-based. The protocol:
L. donovani Screening. Procyclic promastigotes from exponentially growing cultures maintained in DME-L+ Bob additions were used for all assays. Compounds were initially screened for activity at 10 μM. Compounds were diluted in culture media to a […] in 96 well plates. Promastigotes were diluted to a density of ˜8×10^5 cells/ml then added to the assay plate resulting in a final cell density of 4×10^5 cells/ml. in 96 well plates. Cells were incubated for 96 hrs at 27° C. before the addition of Alamarblue (thermofisher). Fluorescence was read at excitation 530 nm and Emission 590 nm. […] Compounds were serially diluted in thirds, in a 96 well plate, in cell growth media so that concentrations ranged from 0.005 to 10 μM and promastigotes added to a final concentration of 1×10^6 cells/ml. Cells were incubated at 27° C. for 72 hours before the addition of alamar blue. Fluorescence was measured as above.
In general terms: Resazurin is reduced to fluorescent resorufin, in cell work by metabolically active cells.

For data set [3], the system named is Giardia duodenalis trophozoites. Briefly: Resazurin reduction assay (Example 3). The format is cell-based. The settings on record: 42 hours, then 6 hours with Alamarblue. The protocol:
Giardia trophozoites were grown until confluent. The media was replaced with fresh media and they were cold shocked for 40 minutes (as above). Cells were diluted to a concentration of ˜500 000 cells/ml and 100 μl were added to each well of the assay plate (except media only control). The assay was incubated in an anaerobic environment (candle jar) for 42 hours at 37° C. […] After incubation the absorbance of each sample was read at 570 and 630 nm. The percent reduction of resazurin (Alamarblue™) was calculated and data was analysed with GraphPad Prism v6 software. Assay set-up: the assay was performed in 96 well plates in a total volume of 200 μl. 100 μl of NCL812 or NCL062 (concentration of 25.6 mg/ml in DMSO) or metronidazole (concentration 5 mg/ml in DMSO) stock was added to 9.9 ml of TYI-S-33 medium, then serially diluted 1:2 in the same medium. Cells were added as above.

Data set [4] concerns T. brucei procyclic stage. The data set is described as follows: T. brucei screening (alamar blue). The format is cell-based, Trypanosoma brucei. The protocol:
T. brucei screening. Procyclic promastigotes from exponentially growing cells maintained SDM-79 medium were used in all assays. Compounds were initially screened at 10 μM for activity. Compounds were diluted in culture media to a concentration of 20 μM and added to a 96 well plate, after addition of promastigotes (final concentration 4×10^5 cells/ml) compound concentration was 10 μM. Cells were incubated for 48 hrs at 27° C. before the addition of alamar blue and fluorescence measurement as described above. […] Compounds were serially diluted in thirds in culture media resulting in final concentrations ranging from 0.004-10 μM. Promastigotes were added at a final concentration of 4×10^5 cells/ml. Cells were incubated at 27° C. for 48 hours before addition of alamar blue. In addition promastigotes, at a concentration of 8×10^5 were exposed to NCL026 for 1.5 hours before removal of the drug via centrifugation at 5000 rpm for 7 minutes and resuspension of cells in culture media. Cells were incubated for 96 hours at 27° C. and observed daily for metabolic activity (alamar blue assay) and morphological changes. A control culture was exposed to DMSO instead of NCL026.

Data set [5] can be described thus: Cell toxicity assay (WST-1). The settings on record: mouse, RAW 264.7 macrophages, RAW 264.7, 24 hours, read-out: GI50 macrophage. The format is cell-based, mouse. On the procedure:
Cell toxicity assays. Mouse macrophages (RAW 264.7) were grown in RPM11640 media supplemented with L-glutamine and 10% foetal calf serum. Cells were trypsanised when 80% confluent and subcultured every 3-4 days. For cytotoxicity assays cells were diluted to a final cell concentration of 2×10^4 cells/ml and 198 μl added to each well of a 96 well plate. Cells were incubated in a humidified incubator for 2 hours at 37° C. 5% CO2 before the addition of NCL compounds (2 μl/well, previously diluted in DMSO). Campothecin, triton X and DMSO only were used as controls. Cells were exposed to the compounds for 24 hours. The metabolic activity of the cells was determined using the WST-1 assay system (Roche Life Science). The supernatant was removed, 100 μl of PBS with 10% WST-1 was added to each well and incubated for 1 hr before reading absorbance at 450 nm. The selectivity index of the compounds was determined by dividing the IC50 of macrophages by the IC50 against parasites. IC50 was determined via graphpad prism software.
In general terms: Formazan colour is commonly taken as a measure of viable cells.

Setting [6] is: Trypanosoma cruzi, TULAHUEN, L6.

As a reminder, the IC50 is the concentration needed to halve the response being measured. A higher IC50 goes with weaker potency. Broadly, the GI50 is the concentration giving 50% growth inhibition.

The structures appear in SMILES notation.

Compound `O=C(N/N=C/c1cccc(C(F)(F)F)c1)N/N=C/c1cccc(C(F)(F)F)c1` [NCL011] came in with an IC50 in data set [1] (setting [6]) of over 11 µM.
In turn, `N=C(NN=Cc1ccccc1Cl)NN=Cc1ccccc1Cl` [NCL020] came in with an IC50 in data set [1] of 24 µM. This counts as double-digit micromolar.
`N=C(N/N=C/c1ccc(F)cc1)N/N=C/c1ccc(F)cc1` [NCL021] registered an IC50 in data set [1] (setting [6]) of 16 µM.
In data set [1] (setting [6]), `N=C(N/N=C/c1cccc(F)c1)N/N=C/c1cccc(F)c1` [NCL023] yielded an IC50 of 19 µM. This IC50 and that of the compound before are within 1.5-fold of each other.
With `N#Cc1ccccc1C=NNC(=N)NN=Cc1ccccc1C#N` [NCL025], in data set [1], the midpoint of inhibition, the IC50, lay at 20 µM. This lies in the double-digit micromolar range.
In the case of `COc1ccc(C=NNC(=N)NN=Cc2ccc(OC)cc2)cc1` [NCL027], in data set [1], 14 µM corresponded to half-maximal inhibition (IC50).
In data set [1] (setting [6]), `COc1cccc(/C=N/NC(=N)N/N=C/c2cccc(OC)c2)c1` [NCL029] displayed an IC50 of 19 µM. That is a double-digit micromolar value.
As to `N=C(N)N/N=C/c1ccc(Cl)cc1` [NCL030], in data set [1] (setting [6]), the IC50 turned out to be 18 µM.
In turn, `N#Cc1ccccc1C=NNC(=N)N` [NCL032] had an IC50 in data set [1] of 58 µM.
In data set [1] (setting [6]), `N=C(N/N=C/c1ccc(C(F)(F)F)cc1)N/N=C/c1ccc(C(F)(F)F)cc1` [NCL035] showed an IC50 of 20 µM.
For the compound `N=C(NN=Cc1ccccc1C(F)(F)F)NN=Cc1ccccc1C(F)(F)F` [NCL036], in data set [1], half-maximal inhibition (IC50) was put at 8.3 µM.
Still for that read-out and setting: with `N=C(NN=Cc1cccc(C(F)(F)F)c1)NN=Cc1cccc(C(F)(F)F)c1` [NCL037] the figure was 16 µM.
Consider `Cc1ccc(/C=N/NC(=N)N/N=C/c2ccc(C)cc2)cc1` [NCL038], for which the IC50 in data set [1] (setting [6]) was determined as 16 µM.
Regarding `Cc1ccccc1/C=N/NC(=N)N/N=C/c1ccccc1C` [NCL039], the IC50 in data set [1] (setting [6]) is 9.9 µM.
In data set [1] (setting [6]), `Cc1cccc(/C=N/NC(=N)N/N=C/c2cccc(C)c2)c1` [NCL040] came in with an IC50 of 16 µM.
Take `N=C(N)N/N=C/c1ccc(C(F)(F)F)cc1` [NCL041]: in data set [2] (Leishmania donovani), the inhibition at 10 µM was 100%. Also, the IC50 in data set [1] (setting [6]) was determined as 14 µM.
In data set [1] (setting [6]), `N=C(N)N/N=C/c1cccc(C(F)(F)F)c1` [NCL043] came in with an IC50 of 16 µM.
Compound `Cc1ccc(/C=N/NC(=N)N)cc1` [NCL044] yielded an IC50 in data set [1] (setting [6]) of 39 µM.
Turning to `N=C(N)N/N=C/c1cccc(Cl)c1` [NCL052], half-maximal inhibition in data set [1] (setting [6]) (IC50) required 15 µM. This IC50 is about 2.6-fold lower than that of the compound before.
For the compound `N=C(N/N=C/c1cccc(Cl)c1)N/N=C/c1cccc(Cl)c1` [NCL054], inhibition in data set [1] (setting [6]) was half-maximal at 19 µM (IC50).
Consider `C/C(=N\NC(=N)N/N=C(\C)c1ccc(Cl)cc1)c1ccc(Cl)cc1.Cl` [NCL062], for which the “metabolic activity of the trophozoites (percentage of reduction of resazurin)” value in data set [3] is recorded as “reduction in the metabolic activity”. In data set [2] (Leishmania donovani), the inhibition at 10 µM came to 100%. Besides, the “reduction of metabolic activity / inhibitory effect on T. brucei” value in data set [4] (10 μM, 48 hrs) is recorded as “greatest inhibitory effect”. Further, in data set [4] (GI50 of macrophages divided by IC50 of parasites), the “T. brucei SI” value was 1.75. In data set [4] (Trypanosoma brucei, 48 h), this compound returned an IC50 of 4.04 ± 0.83 µM. The GI50 at 24 h in data set [5] turned out to be 7.15 ± 1.27 µM.
The compound `N=C(NN)N/N=C/c1ccc(Cl)cc1` [NCL072] had an IC50 in data set [1] (setting [6]) of 46 µM.
As to `C/C(=N\NC(=N)NN)c1ccc(C(F)(F)F)cc1` [NCL073], in data set [1] (setting [6]), the IC50 came out at 24 µM.
On to `N=C(N/N=C/c1ccc(Cl)cc1)N/N=C/c1ccc(Cl)cc1Cl` [NCL074], for which it took 33 µM to reach half-maximal inhibition in data set [1] (setting [6]) (IC50).
Regarding `CC(=NNC(=N)NN=Cc1ccc(C(F)(F)F)cc1)c1ccc(C(F)(F)F)cc1` [NCL075], in data set [1], it took 15 µM to reach half-maximal inhibition (IC50). In other words, the double-digit micromolar range.
The compound `Cc1ccc(C=NNC(=N)NN=Cc2ccc(Cl)cc2)cc1` [NCL076] came in with an IC50 in data set [1] of 19 µM.
`N=C(N/N=C/c1ccc(Cl)cc1)N/N=C/c1ccc(C(F)(F)F)cc1F` [NCL078] had an IC50 in data set [1] (setting [6]) of over 10 µM.
For `N=C(N/N=C/c1ccc(F)cc1)N/N=C/c1ccc(Cl)cc1` [NCL079], the IC50 in data set [1] (setting [6]) was over 10 µM.
`C/C(=N\NC(=N)N/N=C/c1ccc(Cl)cc1)c1ccc(C(F)(F)F)cc1` [NCL080] returned an IC50 in data set [1] (setting [6]) of 7.8 µM.
In data set [1] (setting [6]), `C/C(=N\NC(=N)N/N=C/c1ccc(Cl)cc1)c1ccc(Cl)cc1` [NCL081] came in with an IC50 of 20 µM. Against the preceding compound, the IC50 is about 2.6-fold higher.
The same measure, in the same setting: with `N=C(N/N=C/c1ccc(Cl)cc1)N/N=C/c1ccccc1Cl` [NCL082] the figure was 22 µM.
`N=C(NN=Cc1ccc(Cl)cc1)NN=Cc1cccc(Cl)c1` [NCL083]: in data set [1], the IC50 was 16 µM.
In turn, `N=C(N/N=C/c1ccc(Cl)cc1)N/N=C/c1ccc(Cl)cc1F` [NCL084] returned an IC50 in data set [1] (setting [6]) of 22 µM.
Turning to `N#Cc1ccccc1C=NNC(=N)NN=Cc1ccc(Cl)cc1` [NCL085], half-maximal inhibition in data set [1] (IC50) was put at 20 µM.
Turning to `N#Cc1cccc(/C=N/NC(=N)N/N=C/c2ccc(Cl)cc2)c1` [NCL086], the IC50 in data set [1] (setting [6]) was 14 µM.
`N#Cc1ccc(C=NNC(=N)NN=Cc2ccc(Cl)cc2)cc1` [NCL087]: in data set [1], the midpoint of inhibition, the IC50, lay at 17 µM. That is a double-digit micromolar value.
For the compound `N=C(N/N=C/c1ccc(Cl)cc1)N/N=C/c1ccccc1F` [NCL088], the IC50 in data set [1] (setting [6]) was 19 µM.
For `C/C(=N\NC(=N)N/N=C(\C)c1ccc(C(C)(F)F)cc1)c1ccc(Cl)cc1` [NCL089], the IC50 in data set [1] (setting [6]) amounted to 3 µM.
Consider `CN(C)c1ccc(/C=N/NC(=N)N/N=C/c2ccc(N(C)C)cc2)cc1.Cl` [NCL113], for which the “L. donovani SI” value is reported as “highly selective” in data set [2] and 14 in data set [2] (listed as NCL 113). The compound further displayed an IC50 in data set [2] (Leishmania donovani, 72 h) of 0.92 ± 0.06 µM. In addition, the GI50 at 24 h in data set [5] is 12.9 ± 3.49 µM.

(Values after patent publication US10392363B2, “Methods for treating protozoan infections” (Neoculi Pty Ltd., priority 2014, dated 2019).)
